*1 amine or outer side, *2 acyl side, *3 side chain or, on linkers, in order; H or OH if unused. Where a SMILES comes first, the peptide text is derived from it. Bridges are numbered along the chain shown (N, C = ends). Roman numbers before positions name the chains, in order. X1 = CN(CCCC(=O)NC(CCC(=O)[*:1])CCC(=O)[*:2])C(=O)c1ccccc1-c1c2ccc(=N)c(S(=O)(=O)O)c-2oc2c(S(=O)(=O)O)c(N)ccc12; X2 = NC(CCC(=O)[*:1])CCC(=O)[*:2]
Tests used:
[1] = test system: BJAB cells; test: Cell viability MTS assay, BJAB; assay type: cell-based, human; settings: 24 hours
Procedure: (§1) BJAB, Jurkat and HCT116 cells (10^5 cells/well) were cultured in 100 µL of culture medium in 96-flat bottom well plates. The next day, cells were treated with the indicated concentrations of the different TRAILmin/DR5 peptides. After 24 hours of treatment cell viability measurement was performed by the MTS assay according to the manufacturer specification (Promega Corporation, Madison, WI, USA).

[2] = test system: HCT116 cells; test: Cell viability MTS assay, HCT116; assay type: cell-based, human; settings: 24 hours
Procedure: as §1

[3] = test system: Jurkat cells; test: Cell viability MTS assay, Jurkat; assay type: cell-based, human; settings: 24 hours
Procedure: as §1

[4] = molecular target: T1, human TRAIL-R2 (Homo sapiens, UniProt O14763); test: Surface plasmon resonance on sensor-immobilized TRAIL-R2; assay type: binding; settings: for koff / kon: 25° C, Langmuir model
T1 construct: purchased Enzo Life Sciences
Procedure: SPR assays were performed on a Biacore T200™, at 25° C. The running buffer was HBS-EP [10 mM HEPES (pH 7.4) containing 0.15 M NaCl, 3.4 mM EDTA and 0.005% (v/v) Tween P20]. The human TRAIL-R2 (Enzo Life Sciences, Farmingdale, NY, USA) receptor was immobilized on a sCM5 sensor chip (GE Healthcare) using the standard amine coupling procedure. The receptors were diluted in 10 mM acetate buffer (pH 5.0) at a concentration of 5 μg/mL. The TRAIL-R2 immobilization level on the sensor chip was 430 RU. Peptides were injected at a flow rate of 5 μL/min for 120 s and allowed to dissociate for an additional 420 s. Surfaces were then regenerated for 5 s with 25 mM HCl. All binding curves were double-referenced (i.e. subtraction of the data of the empty flow cell followed by the subtraction of the data from a running buffer injection cycle).
(§2) Double-referenced SPR binding curves sets were fitted globally using the BIAevaluation 4.1.1 (GE Healthcare Biacore) or TraceDrawer (Ridgeview Diagnostics AB, Uppsala, Sweden) softwares. The signal recorded with the LigandTracer on an empty spot or slide was subtracted from that recorded on cell-carrying slides. The resulting binding curves were analyzed by kinetic distribution analysis using the tool Interaction Map (Ridgeview Diagnostics AB, Uppsala, Sweden). Interaction Map decomposes the kinetic curve recorded for the binding of a homogeneous ligand to a heterogeneous group of targets into its different components. Results are represented as interaction maps (kon versus koff, log scale), where the color of each populated area represents its degree of contribution to the kinetic curve (red = high contribution, blue = low contribution).

[5] = molecular target: T2, TRAIL-R2 expressed on HCT116 cells (Homo sapiens, UniProt O14763); test: LigandTracer real time binding on living HCT116 cells; settings: HCT116 cells expressing TRAIL-R2
T2 construct: we used BJAB, HCT116 and Jurkat that express a natural level of TRAIL-R2 receptors; endogenous in cells; host or cells: HCT116
Procedure: The adherent cells HCT116-TRAIL-R2-DEF and HCT116 cells were directly plated on glass slides (Ø20 mm) (10^6 cells/well). The cells in suspension (BJAB and BJAB-TRAIL-R2-DEF) were covalently adhered to glass slides coated with poly-L-lysine (0.1% v/v) (Sigma Aldrich, Saint Louis, MO, USA). The adhesion was strong enough for measurement during 10h. After 24 hours, the slides were fixed with superglue at different locations of a Petri dish, which was inserted in the LigandTracer Green instrument (Ridgeview Instrument AB, Uppsala, Sweden). An empty spot or empty glass slide fixed to the Petri dish was used to record the background signal. This set-up allowed the simultaneous monitoring of the binding of a given peptide to different cell-carrying glass slides fixed to the dish. […] The fluorescence signal is recorded over time when the slide is out of the solution, and therefore corresponds to the amount of bound peptide. […]
Double-referenced SPR binding curves sets were fitted globally using the BIAevaluation 4.1.1 (GE Healthcare Biacore) or TraceDrawer (Ridgeview Diagnostics AB, Uppsala, Sweden) softwares. The signal recorded with the LigandTracer on an empty spot or slide was subtracted from that recorded on cell-carrying slides. The resulting binding curves were analyzed by kinetic distribution analysis using the tool Interaction Map (Ridgeview Diagnostics AB, Uppsala, Sweden). […]

[6] = molecular target: T3, TRAIL-R2 expressed on Jurkat cells (Homo sapiens, UniProt O14763); test: LigandTracer real time binding on living Jurkat cells
T3 construct: we used BJAB, HCT116 and Jurkat that express a natural level of TRAIL-R2 receptors; endogenous in cells; host or cells: Jurkat

[7] = molecular target: T4, TRAIL-R2 on BJAB cells (Homo sapiens, UniProt O14763); test: Flow cytometry staining with fluorescent peptides, BJAB; assay type: binding
T4 construct: expressed in transfected cells
Procedure: (§3) 10^6 cells were washed in PBS containing 2% FCS and then incubated at 4° C for 30 min with an anti-TRAIL-R2 antibody (clone BK9 Diaclone, Besançon, France) according to concentration recommended by the manufacturer or with fluorescent peptides at the concentration of 1 µM. After two washes in PBS-2% FBS, TRAIL-R2 expression was monitored by flow cytometry (Guava easyCyte™, Merck Milipore, Darmstadt, Germany) and data were analyzed with InCyte Software (Merck Milipore).

[8] = molecular target: T5, TRAIL-R2 on HCT116 cells (Homo sapiens, UniProt O14763); test: Flow cytometry staining with fluorescent peptides, HCT116; assay type: binding
T5 construct: we used BJAB, HCT116 and Jurkat that express a natural level of TRAIL-R2 receptors; endogenous in cells; host or cells: HCT116
Procedure: as §3

[9] = molecular target: TRAIL-R2 expressed on BJAB cells (Homo sapiens, UniProt O14763); test: LigandTracer real time binding on living BJAB cells; parameters: expressed in transfected cells
Procedure: The adherent cells HCT116-TRAIL-R2-DEF and HCT116 cells were directly plated on glass slides (Ø20 mm) (10^6 cells/well). The cells in suspension (BJAB and BJAB-TRAIL-R2-DEF) were covalently adhered to glass slides coated with poly-L-lysine (0.1% v/v) (Sigma Aldrich, Saint Louis, MO, USA). The adhesion was strong enough for measurement during 10h. After 24 hours, the slides were fixed with superglue at different locations of a Petri dish, which was inserted in the LigandTracer Green instrument (Ridgeview Instrument AB, Uppsala, Sweden). An empty spot or empty glass slide fixed to the Petri dish was used to record the background signal. This set-up allowed the simultaneous monitoring of the binding of a given peptide to different cell-carrying glass slides fixed to the dish. Three mL of solution (culture medium without or with fluorescent peptide) were added to the dish. In the LigandTracer instrument, the dish is tilted and rotates. Consequently the 3 mL solution covers only the lower part of the dish and each cell-carrying slide is alternatively in contact and out of contact with the solution (at intervals of 8 to 16 s). The fluorescence signal is recorded over time when the slide is out of the solution, and therefore corresponds to the amount of bound peptide. The solution in the dish was initially the culture medium (∼30 min) to provide a stable base line. The fluorescent peptide was then added in increasing doses (10, 30 and 90 nM) every two to three hours. Finally the peptide-containing sample was replaced with fresh medium and the dissociation of the peptide from the cells was followed overnight. The measurements were conducted at room temperature (approximately 20° C).
as §2

T1 sequence (O14763 56-440): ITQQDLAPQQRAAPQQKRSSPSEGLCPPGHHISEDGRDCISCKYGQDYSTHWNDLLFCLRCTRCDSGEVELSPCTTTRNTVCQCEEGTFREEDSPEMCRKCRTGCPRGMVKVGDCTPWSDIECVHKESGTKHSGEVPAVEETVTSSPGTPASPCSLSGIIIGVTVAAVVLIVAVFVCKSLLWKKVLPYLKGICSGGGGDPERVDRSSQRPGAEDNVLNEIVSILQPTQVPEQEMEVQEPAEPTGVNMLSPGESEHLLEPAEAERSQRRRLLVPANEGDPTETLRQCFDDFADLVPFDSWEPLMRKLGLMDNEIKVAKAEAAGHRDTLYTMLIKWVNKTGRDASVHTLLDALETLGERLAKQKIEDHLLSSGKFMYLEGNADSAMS
Sequence of TRAIL-R2 expressed on BJAB cells (O14763 56-440): as above
T5 sequence (O14763 56-440): as above
T4 sequence (O14763 56-440): as above
T2 sequence (O14763 56-440): as above
T3 sequence (O14763 56-440): as above

Row | Compound | apoptosis induction in BJAB cells [1] | apoptosis induction in HCT116 cells [2] | apoptosis induction in Jurkat cells [3] | koff ([4]; SPR) | kon ([4]; SPR) | KD of 2d smaller than KD of 1d ([4]; SPR, ratio of KD 1d to 2d) | Rmax ([4]; TRAIL-R2 surface 1, one:one interaction model) | Rmax ([4]; TRAIL-R2 surface 2, one:one interaction model) | cell surface binding [5] | cell surface binding [6] | binding by flow cytometry ([7]; BJAB cells deficient for TRAIL-R2, peptide 1 µM) | binding by flow cytometry ([7]; BJAB cells expressing TRAIL-R2, peptide 1 µM) | binding by flow cytometry ([8]; HCT116 cells deficient for TRAIL-R2, peptide 1 µM) | binding by flow cytometry ([8]; HCT116 cells expressing TRAIL-R2, peptide 1 µM) | cell surface binding ([9]; BJAB cells deficient for TRAIL-R2) | cell surface binding ([9]; BJAB cells expressing TRAIL-R2) | fluorescent signal reached ([9]; BJAB cells that expressed TRAIL-R2, 10, 30 and (f1d) 90 nM)
1 | CC[C@H](C)[C@@H]1NC(=O)[C@H](CCCNC(=N)N)NC(=O)[C@H](CC(N)=O)NC(=O)[C@H](CC(=O)O)NC(=O)[C@H](CC(C)C)NC(=O)[C@@H](NC(=O)[C@H](CC(=O)O)NC(=O)[C@H](Cc2c[nH]c3ccccc23)NC(C)=O)CSSC[C@@H](C(=O)N[C@H](C(=O)N[C@@H](CCCNC(=N)N)C(=O)N[C@@H](CC(C)C)C(N)=O)C(C)C)NC(=O)[C@H](CCC(N)=O)NC(=O)[C@H](CCCNC(=N)N)NC(=O)[C@H](CCCCNC(=O)CCC(N)CCC(=O)NCCCC[C@@H]2NC(=O)CNC(=O)[C@H]([C@@H](C)CC)NC(=O)[C@H](CCCNC(=N)N)NC(=O)[C@H](CC(N)=O)NC(=O)[C@H](CC(=O)O)NC(=O)[C@H](CC(C)C)NC(=O)[C@@H](NC(=O)[C@H](CC(=O)O)NC(=O)[C@H](Cc3c[nH]c4ccccc34)NC(C)=O)CSSC[C@@H](C(=O)N[C@H](C(=O)N[C@@H](CCCNC(=N)N)C(=O)N[C@@H](CC(C)C)C(N)=O)C(C)C)NC(=O)[C@H](CCC(N)=O)NC(=O)[C@H](CCCNC(=N)N)NC2=O)NC(=O)CNC1=O (stereo partly drawn) [2d] (I: Ac-WDCLDNRIGKRQCVRL-NH2 / II: Ac-WDCLDNRIGKRQCVRL-NH2; disulfide I:3-I:13, II:3-II:13; linker I:10-II:10 via X2; N-terminus and C-terminus assumed) | underwent apoptosis | strong resistance | strong resistance | 0.00018 s⁻¹ | 1.5e+06 M⁻¹ s⁻¹ | approximately 400 fold | 33 | 12 |  |  |  |  |  |  |  |  | 
2 | CC[C@H](C)[C@@H]1NC(=O)[C@H](CCCNC(=N)N)NC(=O)[C@H](CC(N)=O)NC(=O)[C@H](CC(=O)O)NC(=O)[C@H](CC(C)C)NC(=O)[C@@H](NC(=O)[C@H](CC(=O)O)NC(=O)[C@H](Cc2c[nH]c3ccccc23)NC(C)=O)CSSC[C@@H](C(=O)N[C@H](C(=O)N[C@@H](CCCNC(=N)N)C(=O)N[C@@H](CC(C)C)C(N)=O)C(C)C)NC(=O)[C@H](CCC(N)=O)NC(=O)[C@H](CCCNC(=N)N)NC(=O)[C@H](CCCCNC(=O)CCC(CCC(=O)NCCCC[C@@H]2NC(=O)CNC(=O)[C@H]([C@@H](C)CC)NC(=O)[C@H](CCCNC(=N)N)NC(=O)[C@H](CC(N)=O)NC(=O)[C@H](CC(=O)O)NC(=O)[C@H](CC(C)C)NC(=O)[C@@H](NC(=O)[C@H](CC(=O)O)NC(=O)[C@H](Cc3c[nH]c4ccccc34)NC(C)=O)CSSC[C@@H](C(=O)N[C@H](C(=O)N[C@@H](CCCNC(=N)N)C(=O)N[C@@H](CC(C)C)C(N)=O)C(C)C)NC(=O)[C@H](CCC(N)=O)NC(=O)[C@H](CCCNC(=N)N)NC2=O)NC(=O)CCCN(C)C(=O)c2ccccc2-c2c3ccc(=N)c(S(=O)(=O)O)c-3oc3c(S(=O)(=O)O)c(N)ccc23)NC(=O)CNC1=O (stereo partly drawn) [f2d] (I: Ac-WDCLDNRIGKRQCVRL-NH2 / II: Ac-WDCLDNRIGKRQCVRL-NH2; disulfide I:3-I:13, II:3-II:13; linker I:10-II:10 via X1; N-terminus and C-terminus assumed) | induced apoptosis | scarcely induced their apoptosis |  | 0.00026 s⁻¹ | 150000 M⁻¹ s⁻¹ |  |  |  | bound weakly | weak binding signal, if any | not | bound | not | bound | weak signals | strong binding | > 25
